The assay concerns the target T1, TLR4 (Mus musculus, UniProt Q9JHF9+Q9QUK6).
T1 construct: Swiss Webster (CFW) and NFkB-luciferase reporter mice were obtained from The Jackson Laboratory; tissue The Jackson Laboratory; host or cells: whole live Swiss Webster (CFW) mice
T1 sequence (Q9QUK6 26-835): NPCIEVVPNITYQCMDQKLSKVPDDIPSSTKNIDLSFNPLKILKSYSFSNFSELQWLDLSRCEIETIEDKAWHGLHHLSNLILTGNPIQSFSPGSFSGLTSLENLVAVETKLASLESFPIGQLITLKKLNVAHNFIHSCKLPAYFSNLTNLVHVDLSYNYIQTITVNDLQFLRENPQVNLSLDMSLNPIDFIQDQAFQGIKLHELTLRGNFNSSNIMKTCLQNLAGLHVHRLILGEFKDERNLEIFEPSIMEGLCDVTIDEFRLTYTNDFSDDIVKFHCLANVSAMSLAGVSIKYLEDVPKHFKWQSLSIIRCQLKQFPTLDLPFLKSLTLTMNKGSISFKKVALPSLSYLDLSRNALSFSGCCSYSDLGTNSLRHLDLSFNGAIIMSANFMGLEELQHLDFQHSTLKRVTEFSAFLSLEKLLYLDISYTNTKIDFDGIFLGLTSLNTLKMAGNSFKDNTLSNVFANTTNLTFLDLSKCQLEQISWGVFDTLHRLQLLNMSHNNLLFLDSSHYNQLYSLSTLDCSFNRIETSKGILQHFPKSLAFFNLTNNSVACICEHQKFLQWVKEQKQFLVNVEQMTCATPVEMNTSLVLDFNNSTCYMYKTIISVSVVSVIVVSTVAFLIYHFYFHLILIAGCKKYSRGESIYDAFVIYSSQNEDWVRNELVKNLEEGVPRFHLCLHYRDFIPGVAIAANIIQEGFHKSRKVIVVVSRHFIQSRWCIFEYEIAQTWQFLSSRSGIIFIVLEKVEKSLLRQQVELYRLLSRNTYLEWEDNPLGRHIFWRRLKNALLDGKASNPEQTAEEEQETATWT
T1 sequence (Q9JHF9 19-160): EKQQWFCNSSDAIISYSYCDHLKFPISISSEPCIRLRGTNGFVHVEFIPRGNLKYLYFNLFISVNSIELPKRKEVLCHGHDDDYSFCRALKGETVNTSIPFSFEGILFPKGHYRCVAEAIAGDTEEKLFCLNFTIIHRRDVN
The experiment in a line: CFW endotoxemia assay (observation of behavior and phenotype after LPS). In kind it is in vivo. The following applies: CFW mice, 20 nanomoles compound i.p. 30 minutes prior to LPS 2 mg/kg, 6 hours; for Observation (Compound “Negatives”): listed as “Negatives”; for Observation (Compound “Hits”): listed as “Hits”. The procedure:
Compound preparation and delivery. All 65 identified compounds were received in solid form and stored at 4° C. until use. Stock solutions of each compound were made by dissolving the appropriate amount of each compound in dimethyl sulfoxide (DMSO) to yield a concentration of 10 mM. Immediately prior to injection into experimental animals, the compounds were diluted to an experimental concentration of 100 uM in phosphate-buffered saline (PBS). Total concentration of DMSO in the final diluted drug was 1%. Compounds were closely examined to insure that no precipitate formed prior to injection and were stored on ice until injection. All compounds were given via intraperitoneal (i.p.) injection in a total volume of 200 ul using a 1 cc syringe and 27 gauge needle. In all experiments listed below, the compounds were delivered to the experimental mice 30 minutes prior to injection with lipopolysaccharide (LPS) to induce endotoxemia. Control animals not receiving compound received 1% DMSO dissolved in PBS. Following drug injection, the mice were observed closely in their cages for signs of immediate toxicity or adverse reaction to the drug, including but not limited to piloerection, tachypnea, bleeding, abnormal or aggressive behavior, signs of altered mental status, and level of activity.
Induction of endotoxemia. All mice were housed and cared for at the Rangos Research Center, Children's Hospital of Pittsburgh (Pittsburgh, Pa.). All experiments were approved by the Children's Hospital of Pittsburgh Animal Care Committee and by the Institutional Review Board of the University of Pittsburgh. Swiss Webster (CFW) and NFkB-luciferase reporter mice were obtained from The Jackson Laboratory. Throughout the course of all experiments, mice were housed 4 per cage with access to food, water, and standard bedding. Endotoxemia was induced in all experiments by i.p. injection of LPS (Escherichia coli 0111:B4 purified by gel filtration chromatography, >99% pure, Sigma-Aldrich) at a dose of 2 mg/kg for 6 hours. At the end of each experiment, all animals were euthanized by CO2 hypoxia and cervical dislocation.
CFW endotoxemia assay. In order to effectively screen the entire compound list, the remaining compounds (7-60) were screened in a model of endotoxemia using CFW mice. Three separate experiments were performed: First, Compound 7 along with a repeat of compound 4 (n=3 mice per compound, mice age 5 weeks) were tested. Controls were saline injection alone (n=1), LPS 2 mg/kg 6 hrs (n=2). Second, compounds 3, 4, 6, 8-32 were tested (n=1 mouse each, 3 week old mice). Controls were saline injection alone (n=1), LPS 2 mg/kg 6 hrs (n=2), LPS 10 mg/kg 6 hrs (n=2), Bay 11 pretreatment 20 mg/kg for 30 minutes prior to LPS 2 mg/kg 6 hrs. Third, compounds 8, 16, 33-60 were tested (n=1 mouse each, 3 week old mice). Controls were saline injection alone (n=1), LPS 2 mg/kg 6 hrs (n=2), Bay 11 pretreatment 20 mg/kg for 30 minutes prior to LPS 2 mg/kg 6 hrs. Following 6 hours of endotoxemia, mice from the second and third experiments were observed within their cages and videotaped to document behavior and phenotypic differences to assess for an inhibitory effect of compound pretreatment on the effects of LPS. Mice were identified by a number previously placed using permanent marker on their tails. The degree of piloerection, tachypnea, location in the cage (center of cage versus corners), degree of activity, and behavior relative to other animals was observed and documented via video for each mouse.
Less activity, tachypnea, and piloerection are considered symptomatic of endotoxemia, so a decrease in these is consistent with TLR inhibition by the administered compound. Note that compounds listed as negatives may still be T4Ics at other concentrations or conditions.

Structures are written as SMILES.

`CC(=O)N[C@H]1[C@H](O[C@H]2[C@H](O)[C@@H](NC(C)=O)C(O)O[C@@H]2CO)O[C@H](CO)[C@@H](O[C@@H]2O[C@H](CO)[C@@H](O)[C@H](O)[C@H]2NC(C)=O)[C@@H]1O` (stereo partly drawn) [Compound 1, 2-(acetylamino)-4-O-{2-(acetylamino)-4-O-[2-(acetylamino)-2-deoxy-beta-D-glucopyranosyl]-2-deoxy-beta-D-glucopyranosyl}-2-deoxy-D-glucopyranose]: the “Observation (Compound “Negatives”)” value was “More tachypnea, rigors”.

Regarding `O=P(O)(O)OCC1OC(OP(=O)(O)O)C(O)[C@H](O)[C@@H]1O` (stereo partly drawn) [Compound 8, cyclohexanamine compound with 1,6-di-O-phosphono-beta-D-glycero-hexopyranose (4:1) hydrate], the “Observation (Compound “Hits”)” value is “More mobile, less piloerection”.

Consider `CCCCO[C@@H]1O[C@H](CO)[C@@H](OC)[C@H](OC)[C@H]1NC(C)=O` [Compound 14, butyl 2-(acetylamino)-2-deoxy-3,4-di-O-methyl-beta-D-glucopyranoside], for which the “Observation (Compound “Negatives”)” value was “Refused to move from corner, very tachpneic”.

As for `CC(=O)N[C@H]1[C@H](OC[C@H]2O[C@@H]3OC(C)(C)O[C@@H]3[C@H]3OC(C)(C)O[C@H]32)O[C@H](CO)[C@@H](O)[C@@H]1O` [Compound 21, N-((2R,3R,4R,5S,6R)-4,5-dihydroxy-6-(hydroxymethyl)-2-(((3aR,5R,5aS,8aS,8bR)-2,2,7,7-tetramethyltetrahydro-3aH-bis[1,3]dioxolo[4,5-b:4′,5′-d]pyran-5-yl)methoxy)tetrahydro-2H-pyran-3-yl) acetamide], the “Observation (Compound “Hits”)” value is on record as “More active, crawled over other mice, less piloerection”.

Consider `COC(=O)C1(OC)CC(O)C(NC(C)=O)C(C(O)C(O)CO)O1` [Compound 25, dimethyl 5-(acetylamino)-3,5-dideoxy-D-erythro-non-2-ulopyranosidonate], for which the “Observation (Compound “Negatives”)” value is on record as “More piloerection, less mobile than other in the cage”.

For `CC(=O)NC1C(OC(C)C(=O)O)[C@H](O)C(CO)O[C@H]1O` (stereo partly drawn) [Compound 30, 2-((2R,5S)-3-acetamido-2,5-dihydroxy-6-(hydroxymethyl)tetrahydro-2H-pyran-4-yloxy)propanoic acid], the “Observation (Compound “Hits”)” value is “Less tachypnea, more mobile”.

For `CC(=O)N[C@@H]1[C@@H](O)[C@@H](O)[C@@H](CO)O[C@@H]1O` [Compound 31, 2-(acetylamino)-2-deoxy-alpha-D-lyxo-hexopyranose], the “Observation (Compound “Negatives”)” value is recorded as “More tachypneic, more piloerection”.

Take `CC(=O)N[C@@H]1C[C@H](O)[C@@H](CO)O[C@H]1O[C@H]1[C@H](O)[C@@H](O)[C@H](O)O[C@@H]1C(=O)[O-].[Na+]` [Compound 32, sodium (2S,3S,4R,5R,6R)-3-((2S,3R,5S,6R)-3-acetamido-5-hydroxy-6-(hydroxymethyl)tetrahydro-2H-pyran-2-yloxy)-4,5,6-trihydroxytetrahydro-2H-pyran-2-carboxylate]: the “Observation (Compound “Negatives”)” value is given as “More tachypneic, more piloerection”.

For the molecule `CCCCCCO[C@@H]1O[C@H](COC(C)=O)[C@@H](OC(C)=O)[C@H](OC(C)=O)[C@H]1NC(C)=O` [Compound 36, hexyl 3,4,6-tri-O-acetyl-2-(acetylamino)-2-deoxy-beta-D-glucopyranoside], the “Observation (Compound “Hits”)” value is “More active, crawled over other mice, less piloerection”.

For `CC(=O)N[C@H]1[C@H](OC[C@H]2O[C@@H]3OC4(CCCCC4)O[C@@H]3[C@H]3OC4(CCCCC4)O[C@H]32)O[C@H](CO)[C@@H](O)[C@@H]1O` [Compound 37, N-[(2R,3R,4R,5S,6R)-2-[(1′S,2′R,6′R,8′R,9′S)-dispiro[cyclohexane-1,4′-[3,5,7,10,12]pentaoxatricyclo[7.3.0.0^{2,6}]dodecane-11′,1″-cyclohexane]-8′-ylmethoxy]-4,5-dihydroxy-6-(hydroxymethyl)oxan-3-yl]acetamide], the “Observation (Compound “Negatives”)” value is “More tachypneic, less active”.

Take `CC(=O)N[C@H]1C(O)O[C@H](CO)[C@@H](O)[C@@H]1O[C@H](C)C(=O)N[C@@H](C)C(=O)N[C@H](CCC(=O)O)C(N)=O` (stereo partly drawn) [Compound 40, (4R)-4-((2S)-2-((2R)-2-((3R,4R,5S,6R)-3-acetamido-2,5-dihydroxy-6-(hydroxymethyl)tetrahydro-2H-pyran-4-yloxy)propanamido)propanamido)-5-amino-5-oxopentanoic acid]: the “Observation (Compound “Negatives”)” value is reported as “Less active, huddled in corner”.

In the case of `CC(=O)N[C@H]1[C@@H](OP(=O)([O-])OP(=O)([O-])OC[C@H]2O[C@@H](n3ccc(=O)[nH]c3=O)[C@H](O)[C@@H]2O)O[C@H](CO)[C@@H](O)[C@@H]1O.[Na+].[Na+]` [Compound 41, Uridine 5′-diphospho-N-acetylglucosamine sodium salt], the “Observation (Compound “Negatives”)” value was “Less active, huddled in corner”.

In the case of `CC(=O)N[C@H]1[C@H](O[C@H]2[C@H](O)[C@@H](O)[C@H](O[C@H]3[C@H](O)[C@@H](CO)OC(O)[C@@H]3NC(C)=O)O[C@@H]2C(=O)O)O[C@H](CO)[C@@H](O)[C@H]1O[C@H]1O[C@H](C(=O)O)[C@@H](O)[C@H](O)[C@H]1O` (stereo partly drawn) [Compound 42, 2-(acetylamino)-3-O-{4-O-[2-(acetylamino)-2-deoxy-3-O-alpha-D-xylo-hexopyranuronosyl-beta-D-ribo-hexopyranosyl]-beta-D-xylo-hexopyranuronosyl}-2-deoxy-D-glucopyranose], the “Observation (Compound “Hits”)” value is recorded as “Less tachypnea, more mobile”.

As to `CC(=O)CC1OC(OC2C(NC(C)=O)C(O)OC(CO)C2OS(=O)(=O)O)C(O)C(O)C1O` [Compound 43, 2-(acetylamino)-2-deoxy-3-O-(6,8-dideoxy-beta-L-glycero-octopyranosyl-7-ulose)-4-O-sulfo-L-erythro-hexopyranose], the “Observation (Compound “Hits”)” value is given as “More active, crawled over other mice, less piloerection”.

Take `CC(=O)NC1C(O)OC(CO)C(OC2OC(C)C(O)C(O)C2O)C1OC1OC(CO)C(O)C(O)C1O` (stereo not drawn) [Compound 45, 2-(acetylamino)-2-deoxy-4-O-(6-deoxyhexopyranosyl)-3-O-hexopyranosylhexopyranose]: the “Observation (Compound “Hits”)” value was “More active, crawled over other mice, less piloerection”.
